Laboratory results taken from patent US11331299B2, “Medicinal use of serrulatane diterpenes” (The University of Sydney, priority 2016, dated 2022).
pEC50, pIC50: −log10 of the molar value. Read-outs that look alike come from different tables or passages of the source.

Experiments:
BRD2(2) (h) bromodomain = molecular target: T1, BRD2(2) (h) bromodomain (Homo sapiens, UniProt P25440); experiment: Epigenetic binding assay, Bromodomain; settings: read-out: % Inhibition of Control Specific Binding
T1 construct: Bromodomain

H3K9 me2 = experiment: Cell-based detection methyl modifications; settings: read-out: % Inhibition of Control Values
FBXL11 (h) = molecular target: T2, FBXL11 (h) (Homo sapiens, UniProt Q9Y2K7); experiment: Epigenetic enzyme assay, Demethylases (KDMs); assay type: biochemical; settings: read-out: % Inhibition of Control Values
T2 sequence (Q9Y2K7 1-1162): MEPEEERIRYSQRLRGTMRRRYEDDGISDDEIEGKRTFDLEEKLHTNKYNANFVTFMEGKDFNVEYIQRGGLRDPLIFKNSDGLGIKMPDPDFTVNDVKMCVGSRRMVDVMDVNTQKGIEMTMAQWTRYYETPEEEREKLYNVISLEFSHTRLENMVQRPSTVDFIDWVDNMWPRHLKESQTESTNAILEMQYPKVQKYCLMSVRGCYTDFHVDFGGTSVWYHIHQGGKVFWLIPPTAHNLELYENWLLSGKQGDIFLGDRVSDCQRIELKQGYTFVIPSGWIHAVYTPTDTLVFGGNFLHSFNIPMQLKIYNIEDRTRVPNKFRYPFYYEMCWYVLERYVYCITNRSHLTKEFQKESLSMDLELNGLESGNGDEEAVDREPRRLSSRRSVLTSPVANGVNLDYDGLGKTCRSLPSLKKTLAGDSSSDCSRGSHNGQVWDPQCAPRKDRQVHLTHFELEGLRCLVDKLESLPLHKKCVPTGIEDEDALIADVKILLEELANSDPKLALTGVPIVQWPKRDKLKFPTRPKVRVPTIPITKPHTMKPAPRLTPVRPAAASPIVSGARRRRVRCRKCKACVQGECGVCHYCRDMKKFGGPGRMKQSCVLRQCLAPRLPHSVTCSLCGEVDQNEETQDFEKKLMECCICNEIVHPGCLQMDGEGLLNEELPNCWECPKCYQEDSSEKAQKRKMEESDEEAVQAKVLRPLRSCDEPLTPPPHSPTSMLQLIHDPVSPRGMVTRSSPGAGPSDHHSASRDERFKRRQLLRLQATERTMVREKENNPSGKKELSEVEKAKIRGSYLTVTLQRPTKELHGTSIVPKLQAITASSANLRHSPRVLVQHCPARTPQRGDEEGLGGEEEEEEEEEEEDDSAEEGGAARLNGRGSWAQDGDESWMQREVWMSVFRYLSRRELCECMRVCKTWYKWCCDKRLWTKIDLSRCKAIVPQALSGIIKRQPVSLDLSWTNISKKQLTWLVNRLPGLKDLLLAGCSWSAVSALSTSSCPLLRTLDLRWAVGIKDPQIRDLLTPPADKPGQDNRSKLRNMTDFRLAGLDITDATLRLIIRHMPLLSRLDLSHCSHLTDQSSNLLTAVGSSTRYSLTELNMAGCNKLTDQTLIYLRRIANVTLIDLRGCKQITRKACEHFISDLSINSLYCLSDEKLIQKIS

GCN5L2(h) = GCN5L2(h) (Homo sapiens, UniProt Q92830); experiment: Epigenetic enzyme assay, Histone acetyltransferases (HATs); assay type: biochemical; settings: 10 μM; read-out: % Inhibition of Control Values
ASH1L = ASH1L (Homo sapiens, UniProt Q9NR48); experiment: Epigenetic enzyme assay, Methyltransferases (MTs); assay type: biochemical; settings: for inhibition at 10 µM: read-out: % Inhibition of Control Values
Monoamine Oxidase MAO-B = molecular target: T3, Monoamine Oxidase MAO-B (Homo sapiens, UniProt P27338); experiment: Monoamine Oxidase MAO-B; assay type: biochemical; settings: for remaining activity at 10 µM: assay year 2015, read-out: % Control Response
T3 construct: host or cells: Insect Hi5 cells
T3 sequence (P27338 1-520): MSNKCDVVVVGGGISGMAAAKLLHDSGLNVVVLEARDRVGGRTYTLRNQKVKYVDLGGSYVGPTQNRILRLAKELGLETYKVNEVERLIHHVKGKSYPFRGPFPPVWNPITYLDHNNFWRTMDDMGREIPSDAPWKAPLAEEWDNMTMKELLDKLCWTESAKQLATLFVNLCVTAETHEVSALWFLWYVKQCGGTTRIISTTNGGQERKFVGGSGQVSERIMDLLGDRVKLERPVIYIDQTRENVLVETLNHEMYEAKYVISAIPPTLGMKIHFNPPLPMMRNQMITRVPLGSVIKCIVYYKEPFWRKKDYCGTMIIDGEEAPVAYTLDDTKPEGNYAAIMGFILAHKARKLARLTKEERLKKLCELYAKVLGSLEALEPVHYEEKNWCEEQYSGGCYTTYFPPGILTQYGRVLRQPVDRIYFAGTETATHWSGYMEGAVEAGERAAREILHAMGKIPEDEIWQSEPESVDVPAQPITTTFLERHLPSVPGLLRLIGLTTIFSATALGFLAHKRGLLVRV
Experimental: The in vitro pharmacological studies were conducted by Eurofins PanLab (Taiwan) using the parameters shown in Table 13 with respect to appropriate literature references.

Hs 852.T = experiment: OncoPanel cell proliferation assay (10-day); assay type: cell-based, human; settings: for pEC50 / GI50 / pIC50: Homo sapiens, Skin (Melanoma); for pEC50: read-out: Cell Count EC50; for GI50: read-out: Cell Count GI50; for pIC50: read-out: Cell Count IC50
[1] = test system: Hs695T melanoma cell line; experiment: OncoPanel cell proliferation assay (10-day); assay type: cell-based; settings: Homo sapiens, Hs 695T; for pEC50: read-out: Cell Count EC50; for pIC50: read-out: Cell Count IC50
[2] = Skin (Melanoma), read-out: Cell Count GI50

T1 sequence (P25440 344-453 limits assumed): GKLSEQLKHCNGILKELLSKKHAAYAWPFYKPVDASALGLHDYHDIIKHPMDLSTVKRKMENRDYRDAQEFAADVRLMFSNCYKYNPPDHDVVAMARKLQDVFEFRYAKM
Sequence of GCN5L2(h) (Q92830 whole entry): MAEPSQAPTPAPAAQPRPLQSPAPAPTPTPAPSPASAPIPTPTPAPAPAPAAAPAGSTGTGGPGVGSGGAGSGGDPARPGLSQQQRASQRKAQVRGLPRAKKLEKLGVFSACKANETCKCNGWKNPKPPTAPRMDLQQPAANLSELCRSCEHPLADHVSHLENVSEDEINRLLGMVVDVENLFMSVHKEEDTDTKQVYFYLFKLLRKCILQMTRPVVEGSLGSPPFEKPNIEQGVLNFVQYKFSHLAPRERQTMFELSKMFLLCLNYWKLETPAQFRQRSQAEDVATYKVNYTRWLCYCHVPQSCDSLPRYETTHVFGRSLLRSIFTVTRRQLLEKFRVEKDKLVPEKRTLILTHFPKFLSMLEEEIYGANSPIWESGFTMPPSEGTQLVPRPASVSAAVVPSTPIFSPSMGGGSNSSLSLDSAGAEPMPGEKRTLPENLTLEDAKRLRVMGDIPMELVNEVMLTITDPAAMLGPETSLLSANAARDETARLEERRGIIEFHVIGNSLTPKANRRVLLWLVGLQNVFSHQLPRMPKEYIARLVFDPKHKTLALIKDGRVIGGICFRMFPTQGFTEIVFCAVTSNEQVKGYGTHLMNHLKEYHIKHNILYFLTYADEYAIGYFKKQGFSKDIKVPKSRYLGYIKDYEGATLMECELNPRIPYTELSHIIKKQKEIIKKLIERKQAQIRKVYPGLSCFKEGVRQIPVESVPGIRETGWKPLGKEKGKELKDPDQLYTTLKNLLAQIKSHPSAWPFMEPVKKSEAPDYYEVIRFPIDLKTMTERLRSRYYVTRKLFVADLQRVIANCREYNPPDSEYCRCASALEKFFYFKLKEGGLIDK

SMILES	inhibition at 10 µM (BRD2(2) (h) bromodomain) [%]	inhibition at 10 µM (H3K9 me2) [%]	inhibition at 10 µM (FBXL11 (h)) [%]	inhibition at 10 µM (GCN5L2(h)) [%]	inhibition at 10 µM (ASH1L) [%]	remaining activity at 10 µM (Monoamine Oxidase MAO-B) [%]	pEC50 (Hs 852.T)	GI50 (Hs 852.T) [µM]	pIC50 (Hs 852.T)	pEC50 ([1]; Skin (Melanoma))	GI50 [1, 2] [µM]	pIC50 ([1]; Skin (Melanoma))	further results
CC(C)=CCC[C@H](CO)[C@@H]1CC[C@@H](C)c2c1cc(C)c(O)c2O [Compound 1, 7,8,18-trihydroxyserrulat-14-ene]	58	1	34	11	3	75	5.60	2.42	5.59	5.93	1.16	5.90	% Control Response (Monoamine Oxidase MAO-B; 10 μM, assay year 2015): potent inhibitor; Relative cell count (%) Mean (Hs 852.T; 3.00E+00 microM): 41.6%; Relative cell count (%) Mean (Hs 852.T; 3.00E+01 microM): 2.7%; Relative cell count (%) Mean (Hs 852.T; 3.01E−01 microM): 95.3%; Relative cell count (%) Mean (Hs 852.T; 3.01E−02 microM): 94.5%; Relative cell count (%) Mean (Hs 852.T; 3.02E−03 microM): 104.5%; Relative cell count (%) Mean (Hs 852.T; 9.49E+00 microM): 13.1%; Relative cell count (%) Mean (Hs 852.T; 9.51E−01 microM): 85.5%; Relative cell count (%) Mean (Hs 852.T; 9.52E−02 microM): 92.2%; Relative cell count (%) Mean (Hs 852.T; 9.53E−03 microM): 100.2%; Relative cell count (%) Mean (Hs 852.T; 9.55E−04 microM): 104.3%; GI50 ([1]; calculated on a weight-weight basis, read-out: GI50): 0.37 µg/mL
CC(C)=CCC[C@@H]1C(O)Oc2c(C)cc(O)c3c2[C@H]1CC[C@H]3C (stereo partly shown) [Compound 2, 5,18-epoxyserrulat-14-en-8,18-diol]	22	11	2	5	20	39	4.81	14.7	4.81	5.04	8.99	5.02	
CC(C)=CCC[C@@H]1COc2c(C)cc(O)c3c2[C@H]1CC[C@H]3C [Compound 3, 5,18-epoxy-8-hydroxyserrulat-14-ene]	18	20	11	1	-54	18							
CC(C)=CCC[C@H](C)[C@@H]1CC[C@@H](C)c2c1cc(C)c(O)c2O [Compound 4, 7,8-dihydroxyserrulat-14-ene]							4.92	11.6	4.92	5.30	4.02	5.29	
Nc1ncnc2c1ncn2[C@@H]1O[C@H](CSCC[C@H](N)C(=O)O)[C@@H](O)[C@H]1O [SAH]													pIC50 (ASH1L; read-out: Reference IC50): 5.04
